Source: article PMC6338644 (The FASEB Journal, 2018)

Legend:
[1] = molecular target: T1, His-tagged human SHIP1 phosphatase domain (Homo sapiens, UniProt Q92835); experiment: Malachite green phosphate assay, recombinant SHIP1 phosphatase domain (High Throughput Biomedicine Unit); type: biochemical; settings: for inhibition at 100 µM: inhibitors at 100 µM concentration, read-out: SHIP1 Inhibition efficiency; for IC50: purified His-tagged phosphatase domain
T1 construct: Recombinant His-tagged human SHIP2 and SHIP1 phosphatase domains were produced as previously described; His; made in house
T1 sequence (Q92835 399-715 limits assumed): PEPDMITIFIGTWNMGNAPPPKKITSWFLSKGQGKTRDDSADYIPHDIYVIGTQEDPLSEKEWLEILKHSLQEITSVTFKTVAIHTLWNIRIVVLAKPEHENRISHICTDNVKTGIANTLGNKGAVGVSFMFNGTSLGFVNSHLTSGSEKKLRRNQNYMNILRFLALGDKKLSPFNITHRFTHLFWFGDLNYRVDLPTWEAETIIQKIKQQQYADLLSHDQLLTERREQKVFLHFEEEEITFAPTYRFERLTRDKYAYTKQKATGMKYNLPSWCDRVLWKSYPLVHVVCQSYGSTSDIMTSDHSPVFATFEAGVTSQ
Procedure: (§1) Recombinant His-tagged human SHIP2 and SHIP1 phosphatase domains were produced as previously described ([17]). […] Immunocomplexes were bound to protein G-Sepharose beads at +4°C for 2 h and washed 3 times with malachite green phosphate assay buffer {10 mM 4-(2-hydroxyethyl)-1-piperazineethanesulfonic acid (HEPES), pH 7.25, 6 mM MgCl2, 0.1% 3-[(3-cholamidopropyl)dimethylammonio]-1-propanesulfonate (CHAPS), 250 mM sucrose, and 0.25 mM EDTA}.
(§2) The catalytic activities of the recombinant SHIP2 and SHIP1 phosphatase domains were determined by malachite green phosphate assay at the High Throughput Biomedicine Unit (University of Helsinki) using D-myo-PI(3,4,5)P3 (Echelon Biosciences, Salt Lake City, UT, USA). Different volumes, resulting in desired final concentrations of inhibitors, were transferred to the wells of 384-well plates by using the Echo550 acoustic dispenser (Labcyte, San Jose, CA, USA). Recombinant protein (100 ng) in reaction buffer {10 mM HEPES, pH 7.25, 6 mM MgCl2, 0.1% CHAPS, 250 mM sucrose, and 0.25 mM EDTA} was placed in each well (7.5 µl), and the plates were preincubated at room temperature for 15 min. The phosphatase reaction was started by adding PI(3,4,5)P3 diluted in the reaction buffer (7.5 µl) to each well to reach a final concentration of 100 µM PI(3,4,5)P3 in the 15 µl reaction volume. The plates were incubated at room temperature for 20 min, after which, 15 µl BIOMOL green reagent (Biomol, Plymouth Meeting, PA, USA) was added to each well, and then the plates were incubated for another 25 min at room temperature. Absorbance was measured at 620 nm using a Pherastar FS plate reader (BMG Labtech, Offenburg, Germany). For the manual malachite green phosphate assay in 96-well plates [see Fig. 1; and activity measurement of phosphatase and tensin homolog (PTEN; Signalchem, Richmond, BC, Canada)], the reaction volume was increased to 50 µl, and 100 µl Biomol Green Reagent was added. The catalytic activity of SHIP2 immunoprecipitated from cell and tissue lysates was determined as in Saurus et al. ([22]), omitting SHIP2 inhibitors in lysis buffer, immunoprecipitation reaction, wash, and assay buffers. AS1949490 was synthesized, as described in Supplemental Fig. S1A, or purchased from Tocris Bioscience (Bristol, United Kingdom).

[2] = molecular target: T2, His-tagged human SHIP2 phosphatase domain (Homo sapiens, UniProt O15357); experiment: Malachite green phosphate assay, recombinant SHIP2 phosphatase domain (High Throughput Biomedicine Unit, 384-well); type: biochemical; settings: for inhibition at 100 µM: inhibitors at 100 µM concentration, read-out: SHIP2 Inhibition efficiency; for IC50: purified His-tagged phosphatase domain, 100 µM PI(3,4,5)P3
T2 construct: we produced a His-tagged human SHIP2 phosphatase domain; His; made in house
T2 sequence (O15357 419-732 limits assumed): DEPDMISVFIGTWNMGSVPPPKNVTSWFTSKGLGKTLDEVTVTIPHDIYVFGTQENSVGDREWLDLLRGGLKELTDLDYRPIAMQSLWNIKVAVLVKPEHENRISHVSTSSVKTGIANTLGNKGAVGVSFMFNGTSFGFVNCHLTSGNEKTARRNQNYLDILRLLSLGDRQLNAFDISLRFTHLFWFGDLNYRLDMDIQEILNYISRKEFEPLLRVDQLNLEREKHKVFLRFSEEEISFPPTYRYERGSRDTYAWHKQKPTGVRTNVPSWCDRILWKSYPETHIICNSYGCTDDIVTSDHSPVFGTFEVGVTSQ
Procedure: as §1, §2

db/db mice = settings: cited from earlier work
[3] = test system: Immortalized human podocytes; experiment: Glucose uptake assay in podocytes; type: cell-based
Procedure: (§3) Immortalized human podocytes were maintained as previously described ([10]). […] Podocytes were lysed as previously described ([21]).
(§4) Glucose uptake assay and On-Cell Western were performed essentially as in Tolvanen et al. ([19]). […] Cells were transferred on ice; incubated with anti-HA IgG in serum-free medium for 15 min, followed by additional incubation in fresh cell differentiation medium for 15 min at +37°C; and fixed with 2% paraformaldehyde for 20 min. Cells were incubated with IRDye 800 donkey anti-mouse IgG and nuclear marker DRAQ-5 (Thermo Fisher Scientific). Detection and quantitation were performed with the Odyssey Infrared Imager (Li-Cor Biosciences, Lincoln, NE, USA).
(§5) L6-GLUT4 myotubes overexpressing SHIP2 were treated and glucose uptake performed as described in C. […] Time point 15 min indicates the amount of HA detected on the cells after 15 min internalization.

L6-GLUT4 myotubes = experiment: Glucose uptake assay in L6-GLUT4 myotubes; type: cell-based, rat; settings: insulin 100 nM, 15 min; serum-starved
Procedure: as §3, §4, §5

[4] = test system: HA-GLUT4-GFP at the plasma membrane of L6-GLUT4 cells; experiment: On-Cell Western and HA-GLUT4-GFP endocytosis assay in L6-GLUT4 cells; type: cell-based, rat; settings: insulin 100 nM, 15 min
Procedure: as §4
C) Knockdown of SHIP2 reduces metformin-induced glucose uptake. […] L6-GLUT4 myotubes overexpressing SHIP2 were treated and glucose uptake performed as described in C. […] Time point 15 min indicates the amount of HA detected on the cells after 15 min internalization.

Sc1ncnc2nc[nH]c12 [Mercaptopurine, 3,7-dihydropurine-6-thione]
inhibition at 100 µM [1]: 11.4% | IC50 [1]: 21.2 µM | inhibition at 100 µM [2]: 52.9% | IC50 [2]: 8.8 µM

O=C(Cc1c(F)cccc1F)Nc1cc(OCc2ccc(Cl)cc2)ccn1 [N-[4-(4-chlorobenzyloxy)pyridin-2-yl]-2-(2,6-difluorophenyl)-acetamide]
PCK1 expression in db/db mice (db/db mice): reduce

Insulin: insulin used to stimulate cells (100 or 200 nM, 15 min)
glucose uptake in podocytes ([3]; insulin 200 nM, 15 min): did not respond | increase in glucose uptake in L6-GLUT4 cells (L6-GLUT4 myotubes): 20% | decrease in amount of HA-GLUT4-GFP on the PM after 15 min uptake (endocytosis) [4]: 20%

NC(=O)c1ncn([C@@H]2O[C@H](CO)[C@@H](O)[C@H]2O)c1N [AICAR, 5-aminoimidazole-4-carboxamide ribonucleoside]
glucose uptake in podocytes ([3]; AICAR 1 mM, 20–24 h, alone): failed to increase | glucose uptake in podocytes, insulin combined with AICAR ([3]; AICAR 1 mM, 20–24 h plus insulin 200 nM, 15 min): failed to increase

CC(=O)O[C@]1(C(C)=O)CC[C@H]2[C@@H]3C=C(C)C4=CC(=O)CC[C@]4(C)[C@H]3CC[C@@]21C [Megestrol acetate, 17-(acetyloxy)-6-methylpregna-4,6-diene-3,20-dione]
inhibition at 100 µM [1]: 30% | IC50 [1]: 24.6 µM | inhibition at 100 µM [2]: 76.6% | IC50 [2]: 6.2 µM

Nc1nc2nc[nH]c2c(=S)[nH]1 [Thioguanine, 2-Amino-1H-purine-6(7H)-thione]
inhibition at 100 µM [1]: 29.9% | IC50 [1]: > 50 µM | inhibition at 100 µM [2]: 44.9% | IC50 [2]: 9 µM
